According to paper PMC4403932 (Journal of Medicinal Chemistry, 2015):
Several values for one entry are separate records, joined by “and”; a condition that tells them apart may be missing. Equal entries are not always repeated. Entries after “also recorded” stand apart in the source; their conditions may differ.

How the values were obtained:
[1] = biological target: T1, BRD9 bromodomain (Homo sapiens, UniProt Q9H8M2); test: NanoBRET assay, NanoLuc-BRD9 bromodomain / histone H3.3-HaloTag in HEK293 cells; format: cell-based; conditions: 0.005-33 μM, 18 h, read-out: cellular (apparent) IC50, displacement of NanoLuc-BRD9 bromodomain from histone H3.3
T1 construct: Q9H8M2-BRD amino acids 120–240; expressed in transfected cells; host or cells: HEK293
T1 sequence (Q9H8M2 120-240): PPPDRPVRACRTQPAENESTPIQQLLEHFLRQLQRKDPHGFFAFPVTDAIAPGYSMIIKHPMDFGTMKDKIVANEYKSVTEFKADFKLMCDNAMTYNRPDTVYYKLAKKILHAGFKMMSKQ
Method: Twenty hours post-transfection 2 × 10^4 cells were trypsinized, washed with PBS, and exchanged into media containing phenol red-free DMEM, 10% FBS in the absence (control sample), or the presence (experimental sample) of 100 nM NanoBRET 618 fluorescent ligand (Promega). Cell density was adjusted to 2 × 10^5 cells/mL and then replated in a 96-well assay white plate (Corning Costar no. 3917). At the time of replating compound 7d or 11 were added at a final concentration spanning from 0.005 to 33 μM and the plates were incubated for 18 h at 37 °C in the presence of 5% CO2. NanoBRET substrate (Promega) was added to both control and experimental samples at a final concentration of 10 μM. Readings were performed within 5 min using the CLARIOstar reader (BMG Lifetechnologies) equipped with 450/80 nm bandpass and 610 nm long-pass filters. A corrected BRET ratio was calculated and is defined as the ratio of the emission at 610 nm/450 nm for experimental samples (i.e., those treated with NanoBRET fluorescent ligand) subtracted by and the emission at 610 nm/450 nm for control samples (not treated with NanoBRET fluorescent). BRET ratios are expressed as milliBRET units (mBU), where 1 mBU corresponds to the corrected BRET ratio multiplied by 1000.

[2] = biological target: T2, BRD9 (Homo sapiens, UniProt Q9H8M2); test: Isothermal titration calorimetry, BRD9; format: binding; conditions: for Kd: 50 mM HEPES pH 7.5, 150 mM NaCl, triplicate, read-out: KD; for Kd / N (stoichiometry) / ΔHobs: reverse titration; for LE (ligand efficiency): LE = ΔG/N, N number of non-hydrogen atoms
T2 construct: made in house
T2 sequence (Q9H8M2 136-240 limits assumed): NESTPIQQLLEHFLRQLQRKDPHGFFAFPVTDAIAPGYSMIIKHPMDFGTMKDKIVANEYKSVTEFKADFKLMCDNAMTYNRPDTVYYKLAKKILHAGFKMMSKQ

[3] = test system: HEK293 cells; test: In vitro cytotoxicity (CellTiter-Glo); format: cell-based, human; conditions: cell viability, 0.005-33 μM
Method: Following NanoBRET substrate addition and NanoBRET measurements, to the same wells an equal volume of CellTiter-Glo reagent (Promega) was added and the plates were incubated for 30 min at room temperature. Total luminescence was measured, and relative compound toxicity was determined by comparing the RLUs (relative light units) of a sample containing DMSO vehicle (in the absence of compound 11) to the RLUs of the samples containing 0.005–33 μM compound 11.

[4] = biological target: T3, BRD2(2) (Homo sapiens, UniProt P25440); test: Protein stability (thermal) shift assay, BRD2(2); format: binding; conditions: compound 10 μM, protein 2 μM; average of triplicate
T3 construct: made in house
T3 sequence (P25440 344-453 limits assumed): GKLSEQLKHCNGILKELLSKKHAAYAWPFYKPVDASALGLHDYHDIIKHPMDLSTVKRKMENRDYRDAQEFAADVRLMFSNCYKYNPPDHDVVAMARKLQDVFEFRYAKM

[5] = biological target: T4, BRD3(1) (Homo sapiens, UniProt Q15059); test: Isothermal titration calorimetry, BRD3(1); format: binding; conditions: for LE (ligand efficiency): LE = ΔG/N, N number of non-hydrogen atoms
T4 construct: Fragments were tested in a thermal shift assay against bromodomains of the BET subfamily; made in house
T4 sequence (Q15059 34-140 limits assumed): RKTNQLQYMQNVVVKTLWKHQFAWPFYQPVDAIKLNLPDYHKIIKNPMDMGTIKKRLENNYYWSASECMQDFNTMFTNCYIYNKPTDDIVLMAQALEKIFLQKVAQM
Method: Experiments were carried out on an ITC200 titration microcalorimeter from MicroCal, LLC (GE Healthcare) equipped with a Washing module, with a cell volume of 0.2003 mL, and a 40 μL microsyringe. Experiments were carried out at 15 °C while stirring at 1000 rpm, in ITC buffer (50 mM HEPES, pH 7.5 (at 25 °C), 150 mM NaCl). The microsyringe was loaded with a solution of the protein sample (300−740 μM protein for BRD9 and BRD4(1), respectively, in ITC buffer) and was carefully inserted into the calorimetric cell which was filled with an amount of the ligand (0.2 mL, 20–25 μM in ITC buffer). The system was first allowed to equilibrate until the cell temperature reached 15 °C, and an additional delay of 60 s was applied. All titrations were conducted using an initial control injection of 0.3 μL followed by 38 identical injections of 1 μL with a duration of 2 s (per injection) and a spacing of 120 s between injections. The titration experiments were designed in such a fashion as to ensure complete saturation of the proteins before the final injection. The heat of dilution for the proteins was independent of their concentration and corresponded to the heat observed from the last injection, following saturation of ligand binding, thus facilitating the estimation of the baseline of each titration from the last injection. The collected data were corrected for protein heats of dilution (measured on separate experiments by titrating the proteins into ITC buffer) and deconvoluted using the MicroCal Origin software supplied with the instrument to yield enthalpies of binding (ΔH) and binding constants (KB) in the same fashion as that previously described in detail by Wiseman and co-workers.[66] Thermodynamic parameters were calculated using the basic equation of thermodynamics (ΔG = ΔH – TΔS = −RT ln KB, where ΔG, ΔH, and ΔS are the changes in free energy, enthalpy, and entropy of binding, respectively). In all cases a single binding site model was employed, supplied with the MicroCal Origin software package.

For `COc1ccc(Br)cc1-c1nc(N)nc2[nH]cnc12` [Compound 7d, 2-Amino-6-(5-bromo-2-methoxyphenyl)-9H-purine], the IC50 [1] was 3500 nM, the Kd ([2]; ITC, 15 °C) was 397 ± 19 nM and the ΔG ([2]; ITC, 15 °C) was “–8.45 kcal/mol”. For the same compound, the “N (stoichiometry)” value ([2]; ITC, 15 °C) was 0.97 ± 0.005, the ΔHobs ([2]; ITC, 15 °C) was “–9.63 ± 0.06 kcal/mol” and the “LE (ligand efficiency)” value [2] was 0.44. The “cytotoxicity toward HEK293 cells (in words)” value [3] was “not cytotoxic”, the ΔTm at 10 µM [4] was 0.9 °C and the Kd ([5]; ITC, 50 mM HEPES pH 7.5, 150 mM NaCl, 15 °C, reverse titration, triplicate) was 2040 ± 105 nM. The TΔS ([5]; ITC, 15 °C) was 0.33 kcal/mol, the ΔG ([5]; ITC, 15 °C) was “–7.50 kcal/mol” and the “N (stoichiometry)” value ([5]; ITC, 15 °C, reverse titration) was 1.01 ± 0.009. The ΔHobs ([5]; ITC, 15 °C, reverse titration) was “–7.17 ± 0.09 kcal/mol” and the “LE (ligand efficiency)” value [5] was 0.39.

`Nc1nc(-c2cc(Br)cc3c2OCC3)c2nc[nH]c2n1` [Compound 11, 2-Amino-6-(5-bromo-2,3-dihydrobenzo[b]furan-7-yl)-9H-purine] was tested, and the IC50 [1] was 480 nM and 477 nM, the Kd ([2]; ITC, 15 °C) was 278 ± 15 nM and the TΔS ([2]; ITC, 15 °C) was “–1.63 kcal/mol”. The ΔG ([2]; ITC, 15 °C) was “–8.65 kcal/mol”, the “N (stoichiometry)” value ([2]; ITC, 15 °C) was 1.03 ± 0.003 and the ΔHobs ([2]; ITC, 15 °C) was “–10.28 ± 0.04 kcal/mol”. For the same compound, the “LE (ligand efficiency)” value [2] was 0.43, the “cytotoxicity toward HEK293 cells (in words)” value [3] was “did not observe any cytotoxicty; also recorded: not cytotoxic; also recorded: not toxic” and the ΔTm at 10 µM [4] was 4.3 °C. The TΔS ([5]; ITC, 15 °C) was 0.33 kcal/mol, the ΔG ([5]; ITC, 15 °C) was “–7.50 kcal/mol” and the “N (stoichiometry)” value ([5]; ITC, 15 °C, reverse titration) was 1.01 ± 0.009. For the same compound, the ΔHobs ([5]; ITC, 15 °C, reverse titration) was “–7.17 ± 0.09 kcal/mol” and the “LE (ligand efficiency)” value [5] was 0.38.
